{
  "source": "ChEMBL document CHEMBL4819090",
  "about": "“Discovery of a new series of PI3K-δ inhibitors from Virtual Screening” (Bioorg Med Chem Lett, 2021)",
  "key": {"[1]": {"target": "Phosphatidylinositol 4,5-bisphosphate 3-kinase catalytic subunit gamma isoform (Homo sapiens, UniProt P48736)", "sequence (P48736 whole entry, canonical isoform)": "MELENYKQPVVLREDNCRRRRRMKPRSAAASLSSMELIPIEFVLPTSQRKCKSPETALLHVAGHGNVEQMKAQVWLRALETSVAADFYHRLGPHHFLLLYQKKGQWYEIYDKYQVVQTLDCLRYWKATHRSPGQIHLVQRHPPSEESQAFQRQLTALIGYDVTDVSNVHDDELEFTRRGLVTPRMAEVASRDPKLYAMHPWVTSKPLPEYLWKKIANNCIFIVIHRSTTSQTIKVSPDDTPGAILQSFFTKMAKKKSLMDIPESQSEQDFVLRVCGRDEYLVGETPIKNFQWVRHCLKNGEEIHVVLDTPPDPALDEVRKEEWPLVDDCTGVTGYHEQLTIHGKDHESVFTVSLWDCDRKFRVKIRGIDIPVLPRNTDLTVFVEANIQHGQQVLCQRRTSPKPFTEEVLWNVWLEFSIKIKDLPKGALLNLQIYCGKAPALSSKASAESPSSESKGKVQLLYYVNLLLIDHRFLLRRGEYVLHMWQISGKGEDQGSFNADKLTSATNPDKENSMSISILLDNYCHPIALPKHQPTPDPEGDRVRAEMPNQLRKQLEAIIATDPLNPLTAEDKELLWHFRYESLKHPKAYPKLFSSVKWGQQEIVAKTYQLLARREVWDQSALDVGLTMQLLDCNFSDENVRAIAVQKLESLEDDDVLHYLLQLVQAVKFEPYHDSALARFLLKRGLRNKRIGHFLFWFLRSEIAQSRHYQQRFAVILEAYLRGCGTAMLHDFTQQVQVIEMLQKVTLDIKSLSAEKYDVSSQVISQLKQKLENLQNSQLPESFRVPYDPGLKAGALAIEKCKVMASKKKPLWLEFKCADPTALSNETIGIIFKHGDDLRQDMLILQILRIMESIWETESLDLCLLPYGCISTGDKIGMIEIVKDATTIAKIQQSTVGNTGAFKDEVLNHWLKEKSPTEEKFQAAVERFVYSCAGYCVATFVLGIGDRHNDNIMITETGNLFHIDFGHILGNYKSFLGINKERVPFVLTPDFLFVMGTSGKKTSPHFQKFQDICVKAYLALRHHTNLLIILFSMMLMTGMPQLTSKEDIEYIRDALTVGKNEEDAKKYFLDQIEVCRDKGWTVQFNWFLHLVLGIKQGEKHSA", "experiment": "Inhibition of PI3Kgamma (unknown origin) by HTRF assay"}, "[2]": {"target": "Phosphatidylinositol 4,5-bisphosphate 3-kinase catalytic subunit alpha isoform (Homo sapiens, UniProt P42336)", "sequence (P42336 whole entry, canonical isoform)": "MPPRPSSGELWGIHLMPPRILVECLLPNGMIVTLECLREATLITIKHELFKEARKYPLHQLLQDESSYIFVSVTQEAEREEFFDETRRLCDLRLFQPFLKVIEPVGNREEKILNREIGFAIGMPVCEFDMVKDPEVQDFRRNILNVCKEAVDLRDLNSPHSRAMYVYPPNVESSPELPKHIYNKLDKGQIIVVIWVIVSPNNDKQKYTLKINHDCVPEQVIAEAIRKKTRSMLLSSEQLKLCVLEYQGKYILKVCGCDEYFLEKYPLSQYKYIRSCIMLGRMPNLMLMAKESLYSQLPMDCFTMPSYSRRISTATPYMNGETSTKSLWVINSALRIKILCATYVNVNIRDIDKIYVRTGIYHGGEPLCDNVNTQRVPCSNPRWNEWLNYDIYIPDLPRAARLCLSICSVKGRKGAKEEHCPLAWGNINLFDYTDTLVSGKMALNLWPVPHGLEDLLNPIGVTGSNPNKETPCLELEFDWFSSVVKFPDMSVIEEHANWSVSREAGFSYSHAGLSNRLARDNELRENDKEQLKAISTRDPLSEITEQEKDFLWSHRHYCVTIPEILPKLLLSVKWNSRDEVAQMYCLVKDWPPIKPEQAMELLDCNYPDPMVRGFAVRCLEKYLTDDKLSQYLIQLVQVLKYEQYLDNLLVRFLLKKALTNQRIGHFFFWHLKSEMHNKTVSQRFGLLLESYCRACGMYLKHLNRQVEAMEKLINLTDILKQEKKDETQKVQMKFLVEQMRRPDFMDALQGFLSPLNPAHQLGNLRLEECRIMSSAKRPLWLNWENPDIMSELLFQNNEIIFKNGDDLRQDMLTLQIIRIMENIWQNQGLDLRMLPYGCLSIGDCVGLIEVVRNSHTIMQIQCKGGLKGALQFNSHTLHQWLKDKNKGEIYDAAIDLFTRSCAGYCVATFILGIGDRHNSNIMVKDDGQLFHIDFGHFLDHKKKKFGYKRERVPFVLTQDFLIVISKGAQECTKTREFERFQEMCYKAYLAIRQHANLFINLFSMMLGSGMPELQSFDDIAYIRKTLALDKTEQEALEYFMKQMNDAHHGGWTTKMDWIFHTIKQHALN", "experiment": "Inhibition of PI3Kalpha (unknown origin) by HTRF assay"}, "[3]": {"target": "Phosphatidylinositol 4,5-bisphosphate 3-kinase catalytic subunit beta isoform (Homo sapiens, UniProt P42338)", "sequence (P42338 whole entry, canonical isoform)": "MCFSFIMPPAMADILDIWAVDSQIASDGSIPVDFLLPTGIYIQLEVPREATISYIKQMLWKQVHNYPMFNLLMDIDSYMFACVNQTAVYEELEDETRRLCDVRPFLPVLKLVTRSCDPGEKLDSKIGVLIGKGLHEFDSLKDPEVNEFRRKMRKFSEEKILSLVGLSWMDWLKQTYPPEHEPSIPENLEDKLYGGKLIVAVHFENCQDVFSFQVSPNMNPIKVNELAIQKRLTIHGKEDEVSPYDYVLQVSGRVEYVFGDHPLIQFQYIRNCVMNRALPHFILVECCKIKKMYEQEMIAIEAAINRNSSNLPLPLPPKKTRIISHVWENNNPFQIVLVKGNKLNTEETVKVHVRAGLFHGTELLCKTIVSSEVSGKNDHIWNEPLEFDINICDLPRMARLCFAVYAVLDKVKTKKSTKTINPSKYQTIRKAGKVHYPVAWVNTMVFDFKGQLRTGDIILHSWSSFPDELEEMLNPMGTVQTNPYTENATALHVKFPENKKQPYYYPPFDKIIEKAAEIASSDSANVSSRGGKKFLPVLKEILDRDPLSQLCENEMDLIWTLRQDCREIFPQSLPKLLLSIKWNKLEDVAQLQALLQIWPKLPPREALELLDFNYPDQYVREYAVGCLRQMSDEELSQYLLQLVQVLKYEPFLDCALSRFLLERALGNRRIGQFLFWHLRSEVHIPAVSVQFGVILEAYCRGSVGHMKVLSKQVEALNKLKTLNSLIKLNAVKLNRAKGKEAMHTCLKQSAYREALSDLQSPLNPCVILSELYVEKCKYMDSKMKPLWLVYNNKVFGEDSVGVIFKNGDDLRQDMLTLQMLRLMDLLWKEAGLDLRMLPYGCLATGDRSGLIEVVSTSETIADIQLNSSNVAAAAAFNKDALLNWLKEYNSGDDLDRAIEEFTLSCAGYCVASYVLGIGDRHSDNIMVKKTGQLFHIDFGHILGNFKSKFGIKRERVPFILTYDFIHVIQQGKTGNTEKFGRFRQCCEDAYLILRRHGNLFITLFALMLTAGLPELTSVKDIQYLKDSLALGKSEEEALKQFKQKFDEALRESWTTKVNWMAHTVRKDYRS", "experiment": "Inhibition of PI3Kbeta (unknown origin) by HTRF assay"}, "[4]": {"experiment": "Clearance in Wistar Han rat at 2 mg/kg, iv", "format": "ADME, organism-based", "conditions": "in vivo"}, "[5]": {"experiment": "Volume of distribution in Wistar Han rat at 2 mg/kg, iv", "format": "ADME, organism-based", "conditions": "in vivo"}, "[6]": {"experiment": "Half life in Wistar Han rat at 2 mg/kg, iv", "format": "ADME, organism-based", "conditions": "in vivo"}},
  "data": [
    {"smiles": "O=C1NCc2c1cc(O[C@@H]1CCN(C(=O)C3CC3)C1)cc2-c1cncc(O)c1", "values": [
      {"measurement": "IC50", "setting": "[1]", "result": 3.06, "unit": "µM"}
    ]},
    {"smiles": "O=C1NCc2c1cccc2-c1cc(O)cc(F)c1", "values": [
      {"measurement": "IC50", "setting": "[1]", "result": "> 10", "unit": "µM"}
    ]},
    {"smiles": "Cn1ncc2cc(-c3cc(OC4CN(C(=O)C5CC5)C4)cc4c3CNC4=O)cnc21", "values": [
      {"measurement": "IC50", "setting": "[1]", "result": "> 10", "unit": "µM"}
    ]},
    {"smiles": "O=C1NCc2c1cc(O[C@@H]1CCN(C(=O)C3CC3)C1)cc2-c1cc(O)cc(F)c1", "values": [
      {"measurement": "IC50", "setting": "[1]", "result": 1.8, "unit": "µM"}
    ]},
    {"smiles": "Cc1ncc(-c2cc(O[C@@H]3CCN(C(=O)C4CC4)C3)cc3c2CNC3=O)cc1NS(C)(=O)=O", "values": [
      {"measurement": "IC50", "setting": "[1]", "result": 3.01, "unit": "µM"}
    ]},
    {"smiles": "O=C1NCc2c1cc(NCCCc1ccccc1)cc2-c1cc(O)cc(F)c1", "values": [
      {"measurement": "IC50", "setting": "[1]", "result": 2.02, "unit": "µM"}
    ]},
    {"smiles": "O=C1NCc2c1cc(-c1cccc(F)c1)cc2-c1cc(O)cc(F)c1", "values": [
      {"measurement": "IC50", "setting": "[1]", "result": "> 10", "unit": "µM"}
    ]},
    {"smiles": "O=C1NCc2c1cc(NCCCc1ccccc1)cc2-c1cccc(O)c1", "values": [
      {"measurement": "IC50", "setting": "[1]", "result": 4.33, "unit": "µM"}
    ]},
    {"smiles": "O=C1NCc2c1cc(OC1CN(C(=O)C3CC3)C1)cc2-c1cnc(Cl)c(OC(F)F)c1", "values": [
      {"measurement": "IC50", "setting": "[1]", "result": "> 10", "unit": "µM"}
    ]},
    {"smiles": "COc1ccc(-c2cc(O[C@@H]3CCN(C(=O)C4CC4)C3)cc3c2CNC3=O)cn1", "values": [
      {"measurement": "IC50", "setting": "[1]", "result": 4.74, "unit": "µM"}
    ]},
    {"smiles": "O=C1NCc2c1cc(NCCCN1CCOCC1)cc2-c1cccc(O)c1", "values": [
      {"measurement": "IC50", "setting": "[2]", "result": 25, "unit": "µM"},
      {"measurement": "IC50", "setting": "[3]", "result": 5.15, "unit": "µM"},
      {"measurement": "IC50", "setting": "[1]", "result": "> 50", "unit": "µM"}
    ]},
    {"smiles": "CNc1ncc(-c2cc(OC3CN(C(=O)C4C[C@H]4C)C3)cc3c2CNC3=O)cc1C(F)(F)F", "note": "(stereo partly drawn)", "values": [
      {"measurement": "IC50", "setting": "[1]", "result": "> 10", "unit": "µM"}
    ]},
    {"smiles": "O=C1NCc2c1cc(OC1CN(C(=O)C3CC3)C1)cc2-c1ccc(OC(F)F)nc1", "values": [
      {"measurement": "IC50", "setting": "[1]", "result": "> 10", "unit": "µM"},
      {"measurement": "clearance", "setting": "[4]", "result": 6.3, "unit": "mL/min/kg"},
      {"measurement": "Vd", "setting": "[5]", "result": 1.4, "unit": "L/kg"},
      {"measurement": "half-life", "setting": "[6]", "result": 222, "unit": "min"}
    ]},
    {"smiles": "Nc1ncc(-c2cc(OC3CN(C(=O)C4CC4)C3)cc3c2CNC3=O)cc1C(F)(F)F", "values": [
      {"measurement": "IC50", "setting": "[1]", "result": "> 10", "unit": "µM"}
    ]},
    {"smiles": "C[C@@H]1CN(Cc2nnc(-c3cc4c(c(-c5cc(O)cc(F)c5)c3)CNC4=O)o2)C[C@H](C)O1", "values": [
      {"measurement": "IC50", "setting": "[1]", "result": 7.39, "unit": "µM"}
    ]},
    {"smiles": "O=C1NCc2c1cc(O[C@@H]1CCN(C(=O)C3CC(F)(F)C3)C1)cc2-c1cc(O)cc(F)c1", "values": [
      {"measurement": "IC50", "setting": "[1]", "result": 1.35, "unit": "µM"}
    ]},
    {"smiles": "O=C1NCc2c1cc(O[C@@H]1CCN(C(=O)C3CC3)C1)cc2-c1cnc(F)c(O)c1", "values": [
      {"measurement": "IC50", "setting": "[1]", "result": 1.09, "unit": "µM"}
    ]},
    {"smiles": "O=C1NCc2c1cc(O[C@@H]1CCN(C(=O)C3CCOCC3)C1)cc2-c1cc(O)cc(F)c1", "values": [
      {"measurement": "IC50", "setting": "[1]", "result": 3.13, "unit": "µM"}
    ]}
  ]
}
